How the values were obtained:
[1] = test system: wild-type and drug-resistant HIV clones; assay: Monogram drug susceptibility assays, profile across viral panel; assay type: cell-based, HIV-1; conditions: weakest EC50 to a variant divided by that to wild-type
wild-type HIV-1 protease = wild-type HIV-1 protease (Human immunodeficiency virus type 1 group M subtype B, UniProt P03369); assay: FRET enzyme inhibition assay, wild-type protease; assay type: biochemical
[2] = test system: wild-type HIV-1 protease and drug-resistant variants M1, M2, M3, M4; assay: FRET enzyme inhibition, profile across wild type and mutant panel; assay type: biochemical; conditions: weakest Ki to a drug-resistant variant divided by Ki to wild type
[3] = target: HIV-1 protease M2 (D30N, N88D) (Human immunodeficiency virus type 1 group M subtype B, UniProt P03369, D520N/N578D); assay: FRET enzyme inhibition assay, M2 variant; assay type: biochemical
[4] = target: HIV-1 protease M4 (I50V, A71V) (Human immunodeficiency virus type 1 group M subtype B, UniProt P03369, A561V/I540V); assay: FRET enzyme inhibition assay, M4 variant; assay type: biochemical

Question: `COc1ccc(S(=O)(=O)N(CC2CCCCC2)C[C@@H](O)[C@H](Cc2ccccc2)NC(=O)c2cccc(O)c2)cc1` [AF-77] was tested. Which worst-fold activity loss [1] did it give?
Answer: The worst-fold activity loss was 2.2 fold.

Question: Which “loss in affinity to wild-type protease compared to parent compound” value (wild-type HIV-1 protease; AF-71 vs AD-93, AF-80 vs KB-83) does the source give for `CC[C@H](C)CN(C[C@@H](O)[C@H](Cc1ccccc1)NC(=O)c1cccc(O)c1)S(=O)(=O)c1ccc(-c2ccno2)s1` [AF-71] here?
Answer: Its value is 72 fold.

Question: With `COc1ccc(S(=O)(=O)N(CCCc2ccccc2)C[C@@H](O)[C@H](Cc2ccccc2)NC(=O)c2cccc(O)c2)cc1` [AF-78] as the molecule, how does the worst-fold affinity loss [2] read?
Answer: The worst-fold affinity loss was 98 fold.

Question: Which worst-fold activity loss [1] does the source give for `O=C(N[C@@H](Cc1ccccc1)[C@H](O)CN(CC1CCCCC1)S(=O)(=O)c1ccc2ncsc2c1)c1cccc(O)c1` [AF-72] here?
Answer: Its worst-fold activity loss is 2.6 fold.

Question: For `CC[C@H](C)[C@H](NC(C)=O)C(=O)N[C@@H](Cc1ccccc1)[C@H](O)CN(CC(C)C)S(=O)(=O)c1ccc(OC)cc1` [AF-68], which worst-fold activity loss [1] is on record?
Answer: The worst-fold activity loss was 4.4 fold.

Question: How did the Ki [3] turn out when `CC[C@H](C)CN(C[C@@H](O)[C@H](Cc1ccccc1)NC(=O)[C@@H](NC(C)=O)[C@@H](C)CC)S(=O)(=O)c1ccc2ncsc2c1` [AG-23] was run?
Answer: The Ki was 0.028 ± 0.025 nM.

Question: And the worst-fold activity loss [1]?
Answer: Its worst-fold activity loss is 3.2 fold.

Question: What about the Ki [4] of the same molecule?
Answer: The Ki was 0.092 ± 0.025 nM.

Question: What about the Ki (wild-type HIV-1 protease; Ki, wild type, mean ± standard deviation) of the same molecule?
Answer: The Ki was 0.021 ± 0.009 nM.
